Earlier results on 1 substance are cited in patent publication US4127521A, “Novel octacosapeptides, intermediates therefor and pharmaceutical compositions and methods employing said octacosapeptides” (priority 1977, dated 1978).

For series [1] the following is noted: injected directly into the brain of the rat.
Series [2] deals with brain opiate receptor sites.

On to “H-Tyr-Gly-Gly-Phe-Met-OH [methionine enkephalin]”, for which the analgesic activity entry in series [1] was “weak analgesic agent of short duration”. The “binding to partially purified brain opiate receptor sites” value in series [2] is “binds stereo-specifically”.
